# Test results as given in patent US20230086703A1, “N-(4-(5-chloropyridin-3-yl)phenyl)-2-(2-(cyclopropanesulfonamido)pyrimidin-4-yl) butanamide derivatives and related compounds as human CTPS1 inhibitors for the treatment of proliferative diseases” (Step Pharma S.A.S., priority 2019, published 2023).
# Molecular target: T1, human CTPS1 (Homo sapiens, UniProt P17812)
# T1 construct: FLAG (with GG linker); His8 (with GG linker); purchased Proteros biostructures GmbH
# T1 sequence (P17812 1-591): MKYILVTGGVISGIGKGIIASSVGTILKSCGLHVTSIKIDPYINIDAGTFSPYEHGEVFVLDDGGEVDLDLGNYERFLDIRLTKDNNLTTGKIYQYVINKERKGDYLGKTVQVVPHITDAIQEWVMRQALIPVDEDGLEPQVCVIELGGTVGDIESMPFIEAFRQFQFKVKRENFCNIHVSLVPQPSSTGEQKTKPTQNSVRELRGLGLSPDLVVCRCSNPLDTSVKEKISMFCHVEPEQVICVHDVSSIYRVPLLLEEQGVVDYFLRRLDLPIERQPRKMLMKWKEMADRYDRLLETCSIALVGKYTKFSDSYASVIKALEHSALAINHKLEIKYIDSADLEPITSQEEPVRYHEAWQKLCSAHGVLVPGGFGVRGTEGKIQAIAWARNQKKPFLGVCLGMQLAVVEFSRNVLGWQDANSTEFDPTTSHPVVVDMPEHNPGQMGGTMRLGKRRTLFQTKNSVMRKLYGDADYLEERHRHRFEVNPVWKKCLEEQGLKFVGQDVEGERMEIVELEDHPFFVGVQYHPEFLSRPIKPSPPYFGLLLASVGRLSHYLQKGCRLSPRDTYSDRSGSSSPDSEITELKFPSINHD
# Assay: RapidFire/MS-based enzyme selectivity assay (human CTPS1 versus CTPS2), CTPS1 isoform
# Format: biochemical
# Conditions: RapidFire/MS IC50 values of CTPS1 and CTPS2; Table 15
# Description: Human CTPS1 Versus CTPS2 Selectivity Assessment by RapidFire/MS Analysis.
# The enzyme inhibitory activities against each target isoform of interest may be determined for the compounds of the invention using an optimised RapidFire high-throughput mass spectrometry (RF/MS) assay format. RF/MS assays for both human CTPS1 and CTPS2 may be performed in assay buffer consisting of 50 mM HEPES (Merck), 20 mM MgCl2, 5 mM KCl, 1 mM DTT, 0.01% Tween-20, pH to 8.0 accordingly. Human full-length active C-terminal FLAG-His-tag CTPS1 (UniProtKB—P17812, CTPS1[1-591]-[…] (CTPS1[1-591]-SEQ ID NO: 1)) may be obtained from Proteros biostructures GmbH. Human full length active C-terminal FLAG-His-Avi tagged CTPS2 (UniProtKB—Q9NRF8, CTPS2 [1-586]-[…] (CTPS2 [1-586]—SEQ ID NO: 2)) may be obtained from Harker Bio.
# Human CTPS (1 or 2) protein may be prepared in 1× assay buffer to the final working protein concentration required for the reaction. A 2 uL volume per well of 2×CTPS (1 or 2) protein may be mixed with 40 nL of compound using acoustic (ECHO) delivery and incubated for 10 minutes at 25° C. Each isoform enzymatic reaction may be subsequently initiated by addition of 2 uL per well of a 2× substrate mix in assay buffer. For hCTPS1: ATP (0.3 mM), UTP (0.2 mM), GTP (0.07 mM) and L-glutamine (0.1 mM). For hCTPS2: ATP (0.1 mM), UTP (0.04 mM), GTP (0.03 mM) and L-glutamine (0.1 mM). Each mixture may be incubated for an appropriate amount of time per isoform within the determined linear phase of the reaction at 25° C. A 80 uL volume of stop solution (1% formic acid with 0.5 uM ^13C9-^15N3-CTP in H2O) may be added and the plate immediately heat-sealed and centrifuged for 10 minutes at 4,000 rpm. Following centrifugation, plates may be loaded onto the Agilent RapidFire microfluidic solid phase extraction system coupled to an API4000 triple quadrupole mass spectrometer (RF/MS) for analysis.
# In all cases, the enzyme converts UTP to CTP. Highly specific and sensitive multiple reaction monitoring (MRM) MS methods may be optimised for the detection of the enzymatic reaction product, CTP, and the stable isotope labelled product standard ^13C9-^15N3-CTP. Readout for data analysis may be calculated as the ratio between the peak area of the product CTP and the internal standard ^13C9-^15N3-CTP. For data reporting, the following equation may be used:
# (R=ratio/readout, P=product signal area, IS=internal standard signal area)
# For each screening plate, the means of the negative (DMSO) and positive control values were used for the calculation of the respective assay window (S/B) and Z′ values. The median of the respective control values was used for calculation of percent inhibition according to the following equation:
# (I=Inhibition, Rneq=median of negative control readout values, Rpos=median of positive control readout values, Rsample=sample readout value)
# Percentage inhibition was then plotted against compound concentration, and the 50% inhibitory concentration (IC50) was determined from the resultant concentration-response curve.
# Fold selectivity between CTPS1 and CTPS2 was subsequently calculated according to the following equation: […]
row,SMILES,Selectivity (fold selectivity between CTPS1 and CTPS2)
1,"CCC(C(=O)Nc1ccc(-c2cncc(OCC(F)(F)F)n2)cc1F)c1ccnc(NS(=O)(=O)C2CC2)n1 (stereo not drawn) [P98, 2-(2-(cyclopropanesulfonamido)pyrimidin-4-yl)-N-(2-fluoro-4-(6-(2,2,2-trifluoroethoxy)pyrazin-2-yl)phenyl)butanamide]",+++ (>60 fold (+++))
2,"CCC(C(=O)Nc1ccc(-c2cncc(C(F)(F)F)n2)cc1)c1ccnc(NS(=O)(=O)C2CC2)n1 (stereo not drawn) [P103, 2-(2-(cyclopropanesulfonamido)pyrimidin-4-yl)-N-(4-(6-(trifluoromethyl)pyrazin-2-yl)phenyl)butanamide]",+ (2-30 fold (+))
3,"CCOc1cncc(-c2ccc(NC(=O)C(CC)c3ccnc(NS(=O)(=O)C4CC4)n3)cc2)n1 (stereo not drawn) [P105, 2-(2-(cyclopropanesulfonamido)pyrimidin-4-yl)-N-(4-(6-ethoxypyrazin-2-yl)phenyl)butanamide]",++ (>30-60 fold (++))
4,"CCC(C(=O)Nc1ccc(-c2cncc(OCC(F)(F)F)n2)cc1)c1ccnc(NS(=O)(=O)C2CC2)n1 (stereo not drawn) [P108, 2-(2-(cyclopropanesulfonamido)pyrimidin-4-yl)-N-(4-(9-(2,2,2-trifluoroethoxy)pyrazin-2-yl)phenyl)butanamide]",+++ (>60 fold (+++))
5,"CCOc1cncc(-c2ccc(NC(=O)C(CCOC)c3ccnc(NS(=O)(=O)C4CC4)n3)cc2)n1 (stereo not drawn) [P110, 2-(2-(cyclopropanesulfonamido)pyrimidin-4-yl)-N-(4-(9-ethoxypyrazin-2-yl)phenyl)-4-methoxypbutanamide]",++ (>30-60 fold (++))
6,"CCOc1cncc(-c2ccc(C(=O)NCc3ccnc(NS(=O)(=O)C4CC4)n3)cc2)n1 [P118, N-((2-(cyclopropanesulfonamido)pyrimidin-4-yl)methyl)-4-(6-ethoxypyrazin-2-yl)benzamide]",+++ (>60 fold (+++))
7,"CC(C)(C(=O)Nc1ccc(-c2cncc(C3CC3)n2)cc1F)c1ccnc(NS(=O)(=O)C2CC2)n1 [P128, 2-(2-(cyclopropanesulfonamido)pyrimidin-4-yl)-N-(4-(9-cyclopropylpyrazin-2-yl)-2-fluorophenyl)-2-methylpropanamide]",+ (2-30 fold (+))
8,"CC(C)c1cncc(-c2ccc(NC(=O)C(C)(C)c3ccnc(NS(=O)(=O)C4CC4)n3)cc2)n1 [P132, 2-(2-(cyclopropanesulfonamido)pyrimidin-4-yl)-N-(4-(6-isopropylpyrazin-2-yl)phenyl)-2-methylpropanamide]",++ (>30-60 fold (++))
9,"CCOc1cncc(-c2ccc(NC(=O)C3(c4ccnc(NS(=O)(=O)C5CC5)n4)CCOCC3)c(F)c2)n1 [P143, 4-(2-(cyclopropanesulfonamido)pyrimidin-4-yl)-N-(4-(6-ethoxypyrazin-2-yl)-2-fluorophenyl)tetrahydro-2H-pyran-4-carboxamide]",+++ (>60 fold (+++))
10,"CCOc1cncc(-c2ccc(NC(=O)C(CCOC)c3ccnc(NS(=O)(=O)C4CC4)n3)c(F)c2)n1 (stereo not drawn) [P146, 2-(2-(cyclopropanesulfonamido)pyrimidin-4-yl)-N-(4-(6-ethoxypyrazin-2-yl)-2-fluorophenyl)-4-methoxybutanamide]",+++ (>60 fold (+++))
11,"CCOc1cncc(-c2cnc(NC(=O)C(CC)c3ccnc(NS(=O)(=O)C4CC4)n3)c(C)c2)n1 (stereo not drawn) [P155, 2-(2-(cyclopropanesulfonamido)pyrimidin-4-yl)-N-(5-(6-ethoxypyrazin-2-yl)-3-methylpyridin-2-yl)butanamide]",+ (2-30 fold (+))
12,"CCC(C(=O)Nc1ncc(-c2cncc(OC)n2)cc1F)c1ccnc(NS(=O)(=O)C2CC2)n1 (stereo not drawn) [P158, 2-(2-(cyclopropanesulfonamido)pyrimidin-4-yl)-N-(3-fluoro-5-(6-methoxypyrazin-2-yl)pyridin-2-yl)butanamide]",+ (2-30 fold (+))
13,"CCOc1cncc(-c2ccc(NC(=O)C(CC)c3ccnc(NS(=O)(=O)C4CC4)n3)c(C)c2)n1 (stereo not drawn) [P161, 2-(2-(cyclopropanesulfonamido)pyrimidin-4-yl)-N-(4-(9-ethoxypyrazin-2-yl)-2-methylphenyl)butanamide]",+ (2-30 fold (+))

# Next, values leading:
row,Selectivity (fold selectivity between CTPS1 and CTPS2),SMILES
1,+++ (>60 fold (+++)),"CCOc1cncc(-c2ccc(NC(=O)C3(c4ccnc(NS(=O)(=O)C5CC5)n4)CCOCC3)nc2)n1 [P115, 4-(2-(Cyclopropanesulfonamido)pyrimidin-4-yl)-N-(5-(6-ethoxypyrazin-2-yl)pyridin-2-yl)tetrahydro-2H-pyran-4-carboxamide]"
2,++ (>30-60 fold (++)),"CC(C)(C(=O)Nc1ccc(-c2cncc(C3CC3)n2)cn1)c1ccnc(NS(=O)(=O)C2CC2)n1 [P125, 2-(2-(cyclopropanesulfonamido)pyrimidin-4-yl)-N-(5-(6-cyclopropylpyrazin-2-yl)pyridin-2-yl)-2-methylpropanamide]"
3,+++ (>60 fold (+++)),"CCOc1cncc(-c2ccc(NC(=O)C3(c4ccnc(NS(=O)(=O)C5CC5)n4)CCCC3)nc2)n1 [P136, 1-(2-(cyclopropanesulfonamido)pyrimidin-4-yl)-N-(5-(6-ethoxypyrazin-2-yl)pyridin-2-yl)cyclopentane-1-carboxamide]"
4,+++ (>60 fold (+++)),"CCOc1cncc(-c2ccc(NC(=O)C(CCOC)c3ccnc(NS(=O)(=O)C4CC4)n3)nc2)n1 (stereo not drawn) [P145, 2-(2-(cyclopropanesulfonamido)pyrimidin-4-yl)-N-(5-(6-ethoxypyrazin-2-yl)pyridin-2-yl)-4-methoxybutanamide]"
5,+++ (>60 fold (+++)),"CCOc1cncc(-c2ccc(NC(=O)C(F)(CC)c3ccnc(NS(C)(=O)=O)n3)nc2)n1 (stereo not drawn) [P151, N-(5-(6-ethoxypyrazin-2-yl)pyridin-2-yl)-2-fluoro-2-(2-(methylsulfonamido)pyrimidin-4-yl)butanamide]"
6,+++ (>60 fold (+++)),"CCC(C(=O)Nc1ccc(-c2cncc(OC)n2)cn1)c1ccnc(NS(=O)(=O)C2CC2)n1 (stereo not drawn) [P159, 2-(2-(cyclopropanesulfonamido)pyrimidin-4-yl)-N-(5-(6-methoxypyrazin-2-yl)pyridin-2-yl)butanamide]"
7,++ (>30-60 fold (++)),"CCOc1cncc(-c2cnc(NC(=O)C(CC)c3ccnc(NS(=O)(=O)C4CC4)n3)c(F)c2)n1 (stereo not drawn) [P162, 2-(2-(cyclopropanesulfonamido)pyrimidin-4-yl)-N-(5-(6-ethoxypyrazin-2-yl)-3-fluoropyridin-2-yl)butanamide]"
8,+++ (>60 fold (+++)),"CCOc1cncc(-c2ccc(NC(=O)C(C)(CC)c3ccnc(NS(=O)(=O)C4CC4)n3)nc2)n1 (stereo not drawn) [P163, 2-(2-(cyclopropanesulfonamido)pyrimidin-4-yl)-N-(5-(6-ethoxypyrazin-2-yl)pyridin-2-yl)-2-methylbutanamide]"
